Test results: US11554182B2, “Macrocyclic complexes of alpha-emitting radionuclides and their use in targeted radiotherapy of cancer” (CORNELL UNIVERSITY, priority 2017, dated 2023)

Assay: In vivo biodistribution of ^225Ac complexes after intravenous injection
Design: species or system C57BL/6 mice
Experimental: In Vivo Biodistribution of ^225Ac Complexes of Macropa and DOTA. All experiments were approved by the Institutional Animal Care Committee (IACC) of the University of British Columbia and were performed in accordance with the Canadian Council on Animal Care Guidelines. A total of 9 female C57BL/6 mice (6-8 weeks old, 20-25 g) were used for the biodistribution study of each radiometal complex, n=3 for each time point.
Macropa (100 μL of a 1 mg/mL solution in NH4OAc) was diluted with 387 μL of NH4OAc (1 M, pH 7), and an aliquot (203 μL) of ^225Ac(NO3)3 (˜157 kBq) was then added; the pH of this solution was adjusted to 6.5-7 by the addition of 1 M NaOH (210 μL, trace metal grade). After 5 min at ambient temperature, the reaction solution was analyzed by TLC (0.4 M pH 4 sodium citrate as the eluent), which confirmed >95% radiochemical yield. The reaction was allowed to proceed overnight, and the radiochemical yield was again confirmed to be >95% the following morning. At this time, mice were anesthetized by 2% isoflurane, and approximately 100 μL (10-15 kBq) of the [^225Ac(macropa)]^+ complex were injected into the tail vein of each mouse. After injection, mice were allowed to recover and roam freely in their cages, and were euthanized by CO2 inhalation at 15 min, 1 h, or 5 h (n=3 at each time point) post-injection. Blood was collected by cardiac puncture and placed into an appropriate test tube for scintillation counting. Tissues collected included heart, liver, kidneys, lungs, small intestine, large intestine, brain, bladder, spleen, stomach, pancreas, bone, thyroid, tail, urine, and feces. Tissues were weighed and then counted with a calibrated gamma counter (Packard, Cobra II model 5002) using three energy windows: 60-120 keV (window A), 180-260 keV (window B), and 400-480 keV (window C). Counting was performed both immediately after sacrifice and after 7 days; counts were decay corrected from the time of injection and then converted to the percentage of injected dose (% ID) per gram of tissue (% ID/g). No differences were noted between the data; therefore, the biodistributions are reported using the data acquired immediately using window A.
The biodistribution studies of [^225Ac(DOTA)]^− and ^225Ac(NO3)3 were carried out as described above for [^225Ac(macropa)]^+, with the following modifications. [^225Ac(DOTA)]^− was prepared by adding ^225Ac(NO3)3 (338 μL, 1.1 MBq) to a solution of DOTA (100 μg, 20 mg/mL in H2O) in NH4OAc (467 μL, 0.15 M, pH 7). The pH of the solution was adjusted to 7 using NH4OAc (150 μL, 1 M, pH 7) and the solution was heated at 85° C. for 45 min. RCY>99% was confirmed by TLC as described above. [^225Ac(DOTA)]^− was diluted with saline to a final concentration of 0.05 MBq/100 μL, and 100 μL were injected into each mouse. ^225Ac(NO3)3 (˜58 μL, 0.4 MBq) was diluted and injected in the same manner as [^225Ac(DOTA)]^−. One mouse that was to be euthanized at the 5 h time point in the [^225Ac(DOTA)]^− study died shortly after injection. In the same manner, one mouse that was to be euthanized at the 1 h time point in the ^225Ac(NO3)3 study died.
The in vivo stability [^225Ac(macropa)]^+ was examined by comparing its biodistribution to those of ^225Ac(NO3)3 and [^225Ac(DOTA)]^−. C57BL/6 mice were injected via tail vein with 10-50 kBq of each radiometal complex and were sacrificed after 15 min, 1 h, or 5 h. The amount of ^225Ac retained in each organ was quantified by gamma counting and reported as the percent of injected dose per gram of tissue (% ID/g). The results of these studies are compiled in Tables 1-3. Inadequate stability of an ^225Ac complex leading to the loss of radioisotope in vivo is manifested by the accumulation of ^225Ac in the liver, spleen, and bone of mice.^[11,12,32] […] The biodistribution profile of [^225Ac(macropa)]^+ (FIG. 3B) differs markedly from that of ^225Ac(NO3)3. […]

[1] = 15 min after i.v. injection, energy window A (60-120 keV)
[2] = 15 min after i.v. injection, energy window B (180-260 keV)
[3] = 15 min after i.v. injection, energy window C (400-480 keV)
[4] = 1 h after i.v. injection, energy window A (60-120 keV)
[5] = 1 h after i.v. injection, energy window B (180-260 keV)
[6] = 1 h after i.v. injection, energy window C (400-480 keV)
[7] = 5 h after i.v. injection, energy window A (60-120 keV)
[8] = 5 h after i.v. injection, energy window B (180-260 keV)

Structure (SMILES): O=C([O-])CN1CCN(CC(=O)[O-])CCN(CC(=O)[O-])CCN(CC(=O)[O-])CC1.[225Ac+3] [[^225Ac(DOTA)]^−]
- % ID/g in bladder [1]: 48.2703 % ID/g
- % ID/g in blood [1]: 5.2881 % ID/g
- % ID/g in bone (femur + joint) [1]: 2.6298 % ID/g
- % ID/g in brain [1]: 0.2655 % ID/g
- % ID/g in feces [1]: 6.2730 % ID/g
- % ID/g in heart [1]: 2.3335 % ID/g
- % ID/g in kidneys [1]: 27.6566 % ID/g
- % ID/g in large intestines [1]: 2.3348 % ID/g
- % ID/g in liver [1]: 2.2520 % ID/g
- % ID/g in lungs [1]: 5.7556 % ID/g
- % ID/g in pancreas [1]: 1.5090 % ID/g
- % ID/g in small intestines [1]: 2.6370 % ID/g
- % ID/g in spleen [1]: 2.5905 % ID/g
- % ID/g in stomach [1]: 2.7440 % ID/g
- % ID/g in tail [1]: 8.8606 % ID/g
- % ID/g in thyroids [1]: −5.7725 % ID/g
- % ID/g in urine [1]: 1467.9186 % ID/g
- % ID/g in bladder [2]: 54.4696 % ID/g
- % ID/g in blood [2]: 5.6357 % ID/g
- % ID/g in bone (femur + joint) [2]: 3.0357 % ID/g
- % ID/g in brain [2]: 0.2735 % ID/g
- % ID/g in feces [2]: 1.0222 % ID/g
- % ID/g in heart [2]: 2.7276 % ID/g
- % ID/g in kidneys [2]: 28.0858 % ID/g
- % ID/g in large intestines [2]: 2.5365 % ID/g
- % ID/g in liver [2]: 2.1817 % ID/g
- % ID/g in lungs [2]: 6.0147 % ID/g
- % ID/g in pancreas [2]: 1.4929 % ID/g
- % ID/g in small intestines [2]: 2.5009 % ID/g
- % ID/g in spleen [2]: 2.9076 % ID/g
- % ID/g in stomach [2]: 2.7311 % ID/g
- % ID/g in tail [2]: 9.4746 % ID/g
- % ID/g in thyroids [2]: 1.6601 % ID/g
- % ID/g in urine [2]: 1635.4394 % ID/g
- % ID/g in bladder [3]: 76.0987 % ID/g
- % ID/g in blood [3]: 7.2941 % ID/g
- % ID/g in bone (femur + joint) [3]: 4.4224 % ID/g
- % ID/g in brain [3]: 0.1588 % ID/g
- % ID/g in feces [3]: 1.5693 % ID/g
- % ID/g in heart [3]: 2.5579 % ID/g
- % ID/g in kidneys [3]: 40.4489 % ID/g
- % ID/g in large intestines [3]: 3.8419 % ID/g
- % ID/g in liver [3]: 2.9046 % ID/g
- % ID/g in lungs [3]: 7.3872 % ID/g
- % ID/g in pancreas [3]: 1.0290 % ID/g
- % ID/g in small intestines [3]: 3.8916 % ID/g
- % ID/g in spleen [3]: 1.5598 % ID/g
- % ID/g in stomach [3]: 3.2425 % ID/g
- % ID/g in tail [3]: 13.4731 % ID/g
- % ID/g in thyroids [3]: −109.5394 % ID/g
- % ID/g in urine [3]: 2691.0615 % ID/g
- % ID/g in bladder [4]: 4.7351 % ID/g
- % ID/g in blood [4]: 0.1144 % ID/g
- % ID/g in bone (femur + joint) [4]: 0.4487 % ID/g
- % ID/g in brain [4]: 0.0224 % ID/g
- % ID/g in feces [4]: 0.2035 % ID/g
- % ID/g in heart [4]: 0.1012 % ID/g
- % ID/g in kidneys [4]: 1.4020 % ID/g
- % ID/g in large intestines [4]: 0.1229 % ID/g
- % ID/g in liver [4]: 0.2715 % ID/g
- % ID/g in lungs [4]: 0.1555 % ID/g
- % ID/g in pancreas [4]: 0.0743 % ID/g
- % ID/g in small intestines [4]: 1.7207 % ID/g
- % ID/g in spleen [4]: 0.0938 % ID/g
- % ID/g in stomach [4]: 0.1367 % ID/g
- % ID/g in tail [4]: 0.8091 % ID/g
- % ID/g in thyroids [4]: 2.3564 % ID/g
- % ID/g in urine [4]: 158.6102 % ID/g
- % ID/g in bladder [5]: 4.7141 % ID/g
- % ID/g in blood [5]: 0.1127 % ID/g
- % ID/g in bone (femur + joint) [5]: 0.4126 % ID/g
- % ID/g in brain [5]: 0.0248 % ID/g
- % ID/g in feces [5]: 0.2349 % ID/g
- % ID/g in heart [5]: 0.1378 % ID/g
- % ID/g in kidneys [5]: 1.2560 % ID/g
- % ID/g in large intestines [5]: 0.0813 % ID/g
- % ID/g in liver [5]: 0.2672 % ID/g
- % ID/g in lungs [5]: 0.1946 % ID/g
- % ID/g in pancreas [5]: 0.0746 % ID/g
- % ID/g in small intestines [5]: 1.8809 % ID/g
- % ID/g in spleen [5]: 0.0825 % ID/g
- % ID/g in stomach [5]: 0.1379 % ID/g
- % ID/g in tail [5]: 0.8973 % ID/g
- % ID/g in thyroids [5]: 2.6514 % ID/g
- % ID/g in urine [5]: 159.1628 % ID/g
- % ID/g in bladder [6]: 6.9149 % ID/g
- % ID/g in blood [6]: 0.1102 % ID/g
- % ID/g in bone (femur + joint) [6]: 0.5654 % ID/g
- % ID/g in brain [6]: 0.0380 % ID/g
- % ID/g in feces [6]: 0.4091 % ID/g
- % ID/g in heart [6]: 0.2857 % ID/g
- % ID/g in kidneys [6]: 1.4787 % ID/g
- % ID/g in large intestines [6]: 0.1381 % ID/g
- % ID/g in liver [6]: 0.2841 % ID/g
- % ID/g in lungs [6]: 0.2551 % ID/g
- % ID/g in pancreas [6]: 0.1730 % ID/g
- % ID/g in small intestines [6]: 2.0201 % ID/g
- % ID/g in spleen [6]: 0.2228 % ID/g
- % ID/g in stomach [6]: 0.1720 % ID/g
- % ID/g in tail [6]: 1.0280 % ID/g
- % ID/g in thyroids [6]: 3.5247 % ID/g
- % ID/g in urine [6]: 177.6788 % ID/g
- % ID/g in bladder [7]: 0.3551 % ID/g
- % ID/g in blood [7]: 0.0140 % ID/g
- % ID/g in bone (femur + joint) [7]: 0.2063 % ID/g
- % ID/g in brain [7]: 0.0213 % ID/g
- % ID/g in feces [7]: 5.5318 % ID/g
- % ID/g in heart [7]: 0.0664 % ID/g
- % ID/g in kidneys [7]: 0.6172 % ID/g
- % ID/g in large intestines [7]: 0.2026 % ID/g
- % ID/g in liver [7]: 0.1010 % ID/g
- % ID/g in lungs [7]: 0.0390 % ID/g
- % ID/g in pancreas [7]: 0.0677 % ID/g
- % ID/g in small intestines [7]: 0.0967 % ID/g
- % ID/g in spleen [7]: 0.1380 % ID/g
- % ID/g in stomach [7]: 0.0852 % ID/g
- % ID/g in tail [7]: 0.3057 % ID/g
- % ID/g in thyroids [7]: 3.6425 % ID/g
- % ID/g in urine [7]: 1.1612 % ID/g
- % ID/g in bladder [8]: 0.7521 % ID/g
- % ID/g in blood [8]: 0.0292 % ID/g
- % ID/g in bone (femur + joint) [8]: 0.1478 % ID/g
- % ID/g in brain [8]: 0.0513 % ID/g
- % ID/g in feces [8]: 3.3534 % ID/g
- % ID/g in heart [8]: 0.0879 % ID/g
- % ID/g in kidneys [8]: 0.6718 % ID/g
- % ID/g in large intestines [8]: 0.2527 % ID/g
- % ID/g in liver [8]: 0.2712 % ID/g
- % ID/g in lungs [8]: 0.1289 % ID/g
- % ID/g in pancreas [8]: 0.1266 % ID/g
- % ID/g in small intestines [8]: 0.2065 % ID/g
- % ID/g in spleen [8]: 0.0834 % ID/g
- % ID/g in stomach [8]: 0.1789 % ID/g
- % ID/g in tail [8]: 0.1634 % ID/g
- % ID/g in thyroids [8]: 16.2357 % ID/g
- % ID/g in urine [8]: 3.6967 % ID/g
